Assay results: the supplement of paper PMC7661543
± gives the standard deviation of the averaged measurements.

Each compound was assayed on SKBR3 (assay: relative cell number vs DMSO control (72 h) (% of DMSO); higher = less growth inhibition (more cells)). Details: sgRNA knockout: sgNT, 10 nM.
Method: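 QMAP-Seq: a pool of 5 breast cancer cell lines (ZR-75-1, SKBR3, HCC-38, MDA-MB-231, BT-20), each carrying 12 doxycycline-inducible Cas9 sgRNA perturbations (11 knockouts plus non-targeting sgNT), was treated with compounds for 72 h at four 10-fold doses (10 nM-10 uM or 1 nM-1 uM range). Barcodes were amplified and sequenced, and cell number was interpolated from 293T spike-in standard curves. The result is expressed as % of the median of DMSO wells. Two biological replicates.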

`C[C@]1(c2nc3c(C(N)=O)cccc3[nH]2)CCCN1` [Veliparib] and `Cc1cc(N2CCOCC2)cc2[nH]c(-c3c(NC[C@@H](O)c4cccc(Cl)c4)cc[nH]c3=O)nc12` are the same in relative cell number: 107 ± 26 for the first, 107 ± 3.5 for the second.

`COc1cc(Nc2ncc3c(n2)-c2ccc(Cl)cc2C(c2c(F)cccc2OC)=NC3)ccc1C(=O)O` [Alisertib] and `COc1cc2nccc(Oc3ccc(NC(=O)C4(C(=O)Nc5ccc(F)cc5)CC4)cc3)c2cc1OC` [Cabozantinib] are within error of each other in relative cell number: 121 ± 14 for the first, 128 ± 10 for the second.

Compared with `Cc1ccc(S(=O)(=O)OCC(=O)Nc2ccc(C(=O)O)c(O)c2)cc1`, `Cc1ccc(C(=O)N(CCCN)[C@@H](c2oc3cc(Cl)ccc3c(=O)c2Cc2ccccc2)C(C)C)cc1` is lower in relative cell number: 83.3 ± 40 for the first, 15.6 ± 15 for the second.

`CC(C)[C@]12O[C@H]1[C@@H]1O[C@]13[C@]1(O[C@H]1C[C@H]1C4=C(CC[C@@]13C)C(=O)OC4)[C@@H]2O` [Triptolide] and `Cc1nc(Nc2n[nH]c3c2CN(C(=O)N[C@H](CN(C)C)c2ccccc2)C3(C)C)c2sccc2n1` are within error of each other in relative cell number: 54.6 ± 19 for the first, 60.9 ± 22 for the second.

Going from `C#Cc1cccc(Nc2ncnc3cc(OCCOC)c(OCCOC)cc23)c1` [Erlotinib] to `C=CCc1cccc(/C=N/NC(=O)CN2CCN(Cc3ccccc3)CC2)c1O` [PAC1], the relative cell number falls from 124 ± 20 to 68 ± 7.

`CS(=O)(=O)N1CCN(Cc2cc3nc(-c4cccc5[nH]ncc45)nc(N4CCOCC4)c3s2)CC1` [GDC0941] showed a relative cell number of 96.1 ± 17.

Same assay, conditions: sgRNA knockout: sgNT, 100 nM

`CC(C)(C)OC(=O)CN(Cc1ccc(Cl)cc1)Cc1ccc([N+](=O)[O-])s1` [GSK4112] and `O=C(O)CC[C@H]1CC[C@@](c2cc(F)ccc2F)(S(=O)(=O)c2ccc(Cl)cc2)CC1` [MK0752] are within error of each other in relative cell number: 89 ± 20 for the first, 114 ± 19 for the second.

Going from `C=C1C[C@@H]2[C@H](CC[C@]3(C)C(=O)CC[C@@H]23)[C@@]2(C)C=CC(=O)C=C12` [Exemestane] to `CC(C)[C@]12O[C@H]1[C@@H]1O[C@]13[C@]1(O[C@H]1C[C@H]1C4=C(CC[C@@]13C)C(=O)OC4)[C@@H]2O` [Triptolide], the relative cell number falls from 93.4 ± 18 to 12.4 ± 9.

Going from `COc1cc([C@@H]2c3cc4c(cc3[C@@H](O[C@@H]3O[C@@H]5CO[C@@H](c6cccs6)O[C@H]5[C@H](O)[C@H]3O)[C@H]3COC(=O)[C@H]23)OCO4)cc(OC)c1O` [Teniposide] to `COc1cc(Nc2ncc3c(n2)-c2ccc(Cl)cc2C(c2c(F)cccc2OC)=NC3)ccc1C(=O)O` [Alisertib], the relative cell number rises from 26.4 ± 3.2 to 80.8 ± 8.3.

`COc1cccc2cc(-c3nc([C@H]4CC[C@H](C(=O)O)CC4)n4ncnc(N)c34)[nH]c12` [OSI027] and `COc1cc2nccc(Oc3ccc(NC(=O)C4(C(=O)Nc5ccc(F)cc5)CC4)cc3)c2cc1OC` [Cabozantinib] are within error of each other in relative cell number: 116 ± 31 for the first, 130 ± 11 for the second.

First: CN(C)C/C=C/C(=O)Nc1cc2c(Nc3ccc(F)c(Cl)c3)ncnc2cc1O[C@H]1CCOC1 [Afatinib]
Second: C#Cc1cccc(Nc2ncnc3cc(OCCOC)c(OCCOC)cc23)c1 [Erlotinib]
The relative cell number of the first is lower: 34.5 ± 13 for the first, 97.3 ± 14 for the second.

`Cc1cnc(-c2cnc(NCCNc3ccc(C#N)cn3)nc2-c2ccc(Cl)cc2Cl)[nH]1` and `Cc1cc(N2CCOCC2)cc2[nH]c(-c3c(NC[C@@H](O)c4cccc(Cl)c4)cc[nH]c3=O)nc12` are within error of each other in relative cell number: 91.2 ± 2.6 for the first, 73 ± 16 for the second.

`CC[C@H](C)C(=O)O[C@H]1C[C@@H](C)C=C2C=C[C@H](C)[C@H](CC[C@@H]3C[C@@H](O)CC(=O)O3)[C@H]21` [Lovastatin] and `C[C@]1(c2nc3c(C(N)=O)cccc3[nH]2)CCCN1` [Veliparib] are within error of each other in relative cell number: 81.1 ± 12 for the first, 104 ± 11 for the second.

`NC(=O)Nc1sc(-c2ccc(F)cc2)cc1C(N)=O` [TPCA1] and `Cc1ccc(S(=O)(=O)OCC(=O)Nc2ccc(C(=O)O)c(O)c2)cc1` are within error of each other in relative cell number: 93.1 ± 17 for the first, 77.3 ± 3.9 for the second.

Going from `Cc1ccc(C(=O)N(CCCN)[C@@H](c2oc3cc(Cl)ccc3c(=O)c2Cc2ccccc2)C(C)C)cc1` to `C=CCc1cccc(/C=N/NC(=O)CN2CCN(Cc3ccccc3)CC2)c1O` [PAC1], the relative cell number rises from 11.3 ± 1.2 to 88.5 ± 14.

`CS(=O)(=O)N1CCN(Cc2cc3nc(-c4cccc5[nH]ncc45)nc(N4CCOCC4)c3s2)CC1` [GDC0941] and `Cc1nc(Nc2n[nH]c3c2CN(C(=O)N[C@H](CN(C)C)c2ccccc2)C3(C)C)c2sccc2n1` are within error of each other in relative cell number: 67.8 ± 33 for the first, 52.5 ± 9 for the second.

Same assay, conditions: sgRNA knockout: sgNT, 1000 nM

First: CC(C)(C)OC(=O)CN(Cc1ccc(Cl)cc1)Cc1ccc([N+](=O)[O-])s1 [GSK4112]
Second: O=C(O)CC[C@H]1CC[C@@](c2cc(F)ccc2F)(S(=O)(=O)c2ccc(Cl)cc2)CC1 [MK0752]
The relative cell number of the first is lower: 66.5 ± 15 for the first, 107 ± 24 for the second.

Compared with `C=C1C[C@@H]2[C@H](CC[C@]3(C)C(=O)CC[C@@H]23)[C@@]2(C)C=CC(=O)C=C12` [Exemestane], `CC(C)[C@]12O[C@H]1[C@@H]1O[C@]13[C@]1(O[C@H]1C[C@H]1C4=C(CC[C@@]13C)C(=O)OC4)[C@@H]2O` [Triptolide] is lower in relative cell number: 115 ± 9.4 for the first, 8.93 ± 1.3 for the second.

First: COc1cc([C@@H]2c3cc4c(cc3[C@@H](O[C@@H]3O[C@@H]5CO[C@@H](c6cccs6)O[C@H]5[C@H](O)[C@H]3O)[C@H]3COC(=O)[C@H]23)OCO4)cc(OC)c1O [Teniposide]
Second: COc1cc(Nc2ncc3c(n2)-c2ccc(Cl)cc2C(c2c(F)cccc2OC)=NC3)ccc1C(=O)O [Alisertib]
The relative cell number of the first is lower: 18.4 ± 2.3 for the first, 77.2 ± 11 for the second.

Compared with `COc1cccc2cc(-c3nc([C@H]4CC[C@H](C(=O)O)CC4)n4ncnc(N)c34)[nH]c12` [OSI027], `CS(=O)(=O)N1CCN(Cc2cc3nc(-c4cccc5[nH]ncc45)nc(N4CCOCC4)c3s2)CC1` [GDC0941] is lower in relative cell number: 69.9 ± 14 for the first, 38.6 ± 4.8 for the second.

Going from `CN(C)C/C=C/C(=O)Nc1cc2c(Nc3ccc(F)c(Cl)c3)ncnc2cc1O[C@H]1CCOC1` [Afatinib] to `C#Cc1cccc(Nc2ncnc3cc(OCCOC)c(OCCOC)cc23)c1` [Erlotinib], the relative cell number rises from 18.7 ± 0.37 to 79 ± 12.

`Cc1cnc(-c2cnc(NCCNc3ccc(C#N)cn3)nc2-c2ccc(Cl)cc2Cl)[nH]1` and `Cc1cc(N2CCOCC2)cc2[nH]c(-c3c(NC[C@@H](O)c4cccc(Cl)c4)cc[nH]c3=O)nc12` are within error of each other in relative cell number: 73.7 ± 18 for the first, 60 ± 15 for the second.

`CC[C@H](C)C(=O)O[C@H]1C[C@@H](C)C=C2C=C[C@H](C)[C@H](CC[C@@H]3C[C@@H](O)CC(=O)O3)[C@H]21` [Lovastatin] and `C[C@]1(c2nc3c(C(N)=O)cccc3[nH]2)CCCN1` [Veliparib] are within error of each other in relative cell number: 93.1 ± 11 for the first, 97.2 ± 27 for the second.

`NC(=O)Nc1sc(-c2ccc(F)cc2)cc1C(N)=O` [TPCA1] and `Cc1ccc(S(=O)(=O)OCC(=O)Nc2ccc(C(=O)O)c(O)c2)cc1` are within error of each other in relative cell number: 102 ± 8.7 for the first, 93.7 ± 14 for the second.

First: Cc1ccc(C(=O)N(CCCN)[C@@H](c2oc3cc(Cl)ccc3c(=O)c2Cc2ccccc2)C(C)C)cc1
Second: C=CCc1cccc(/C=N/NC(=O)CN2CCN(Cc3ccccc3)CC2)c1O [PAC1]
The relative cell number of the first is lower: 15.3 ± 5.2 for the first, 68 ± 27 for the second.

`Cc1nc(Nc2n[nH]c3c2CN(C(=O)N[C@H](CN(C)C)c2ccccc2)C3(C)C)c2sccc2n1` gave a relative cell number of 21.3 ± 0.55.
